Laboratory results published in US6887896B1, “7-[(7-Alkoxy)-chrom-3-en-6-yl]-heptatrienoic acid and 7-[(3-alkoxy)-5,6-dihydronaphthalen-2-yl]-heptatrienoic acid derivatives having serum glucose reducing activity” (Allergan, Inc., priority 2003, dated 2005).

Legend:
RXRγ = target: T1, RXRγ (UniProt P28705); assay: holoreceptor transactivation assay, RXRγ; assay type: cell-based; settings: for EC50: holoreceptor transactivation, read-out: RXR Trans. EC50 γ; for RXR Trans. efficacy (number in parentheses) γ: percentage compared to the standard compound
T1 sequence (P28705 1-463): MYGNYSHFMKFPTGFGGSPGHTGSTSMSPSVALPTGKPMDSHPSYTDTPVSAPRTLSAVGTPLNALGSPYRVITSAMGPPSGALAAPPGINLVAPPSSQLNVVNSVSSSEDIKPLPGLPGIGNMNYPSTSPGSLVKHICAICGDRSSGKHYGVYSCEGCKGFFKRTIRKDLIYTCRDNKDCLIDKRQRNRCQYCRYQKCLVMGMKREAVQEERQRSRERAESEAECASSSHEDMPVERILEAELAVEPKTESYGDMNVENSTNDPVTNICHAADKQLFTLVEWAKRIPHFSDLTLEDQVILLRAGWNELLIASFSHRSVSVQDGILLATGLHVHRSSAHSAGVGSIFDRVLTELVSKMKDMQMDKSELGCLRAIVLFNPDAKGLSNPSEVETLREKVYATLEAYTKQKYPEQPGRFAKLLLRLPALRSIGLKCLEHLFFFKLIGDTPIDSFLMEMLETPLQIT
How it was run: (§1)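 Readout: EC50, nM, from receptor transactivation; efficacy = % of maximum vs standard cyclopropyl penta-2,4-dienoic acid retinoid. RXR data from holoreceptor format; RAR data from chimeric receptor format.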

RXRα [1] = target: T2, RXRα (Homo sapiens, UniProt P19793); assay: holoreceptor transactivation assay, RXRα; assay type: cell-based; settings: for EC50: holoreceptor transactivation, read-out: RXR Trans. EC50 α; for Emax: percentage compared to the standard compound, read-out: RXR Trans. efficacy (number in parentheses) α
T2 construct: expressed in transfected cells
T2 sequence (P19793 1-462): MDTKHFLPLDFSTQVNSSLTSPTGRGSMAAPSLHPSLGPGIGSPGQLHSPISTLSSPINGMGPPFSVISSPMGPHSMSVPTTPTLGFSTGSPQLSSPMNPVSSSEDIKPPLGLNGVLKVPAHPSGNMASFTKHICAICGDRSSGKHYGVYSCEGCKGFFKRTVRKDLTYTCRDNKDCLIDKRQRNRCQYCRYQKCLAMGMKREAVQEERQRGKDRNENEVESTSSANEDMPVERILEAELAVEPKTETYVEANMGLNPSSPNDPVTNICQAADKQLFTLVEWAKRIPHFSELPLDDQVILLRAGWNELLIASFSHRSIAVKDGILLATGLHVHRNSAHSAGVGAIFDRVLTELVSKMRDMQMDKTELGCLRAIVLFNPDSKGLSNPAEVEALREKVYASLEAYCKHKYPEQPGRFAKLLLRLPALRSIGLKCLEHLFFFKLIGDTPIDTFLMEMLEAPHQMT
How it was run: as §1

RXRβ = target: T3, RXRβ (UniProt P28704); assay: ligand binding assay, RXRβ; settings: Table 9 (Formula F); read-out: RXR β Kd
T3 sequence (P28704 1-520): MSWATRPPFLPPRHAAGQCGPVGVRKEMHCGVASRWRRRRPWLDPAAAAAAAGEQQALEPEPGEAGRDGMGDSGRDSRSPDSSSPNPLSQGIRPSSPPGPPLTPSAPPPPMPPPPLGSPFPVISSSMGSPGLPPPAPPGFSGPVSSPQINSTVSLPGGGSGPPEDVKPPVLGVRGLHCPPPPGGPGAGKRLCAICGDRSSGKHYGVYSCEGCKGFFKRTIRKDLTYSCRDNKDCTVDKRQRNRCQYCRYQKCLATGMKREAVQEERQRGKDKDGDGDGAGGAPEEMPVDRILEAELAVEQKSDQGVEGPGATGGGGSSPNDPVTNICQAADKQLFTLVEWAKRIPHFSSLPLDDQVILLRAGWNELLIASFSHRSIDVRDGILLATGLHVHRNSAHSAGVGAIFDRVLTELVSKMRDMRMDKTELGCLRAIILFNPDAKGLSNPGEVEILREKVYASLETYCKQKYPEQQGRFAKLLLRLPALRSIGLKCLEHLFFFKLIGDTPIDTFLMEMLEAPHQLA
How it was run: (§2)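 Binding of compounds to several retinoid receptor subtypes was measured. Results are given as Ki values in nanomolar concentration, derived per Cheng et al.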

RXRα [2] = target: T2, RXRα; assay: ligand binding assay, RXRα; settings: Table 9 (Formula F); read-out: RXR α Kd
How it was run: as §2

SMILES | EC50 (RXRγ) | RXR Trans. efficacy (number in parentheses) γ (RXRγ) | EC50 (RXRα [1]) | Emax (RXRα [1]) | Kd (RXRβ) | Kd (RXRα [2])
CCOc1c(\C(C)=C(F)/C=C/C(C)=C/C(=O)O)cc2c(c1Cl)C(C)(C)CC=C2C(C)C [Compound A-177, (2E,4E,6E)-7-(4-Chloro-3-ethoxy-8-isopropyl-5,5-dimethyl-5,6-dihydronaphthalen-2-yl)6-fluoro-3-methyl-octa-2,4,6-trienoic acid] | 0.2 nM | 73% | 0.1 nM | 72% | 12 nM | 2 nM
CCOc1c(\C(CC)=C(F)/C=C/C(C)=C/C(=O)O)cc2c(c1Cl)C(C)(C)CC=C2C(C)C [Compound A-178, (2E,4E,6E)-7-(4-Chloro-3-ethoxy-8-isopropyl-5,5-dimethyl-5,6-dihydronaphthalen-2-yl)-6-fluoro-3-methyl-nona-2,4,6-trienoic acid] | 0.3 nM | 46% | 0.1 nM | 43% | 11 nM | 1 nM
